The TGI is the concentration giving total growth inhibition.

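Briefly, cells in 96-well plates were exposed to five compound concentrations for 48 h, and endpoints were estimated by linear interpolation. TGI denotes the concentration required for complete inhibition of growth.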

Among the test systems are SNB-75 CNS; EKVX NSCLC; COLO 205 colon; RPMI-8226 leukemia; SK-MEL-5 melanoma; M14 melanoma; BT-549 breast; MCF7 breast; NCI-H23 lung; HCT-15 colon; SN12C renal; 786-0 renal; UACC-62 melanoma; KM12 colon; UO-31 renal; HCT-116 colon; SF-295 CNS; T-47D breast; HOP-92 NSCLC.
What all share (assay): DTP human tumour cell line panel, 48 h

With `C[N+](C)(C)CCOP(=O)([O-])OCCNC(=O)c1ccc2ccccc2c1`, the TGI with SNB-75 CNS, in the assay on EKVX NSCLC, in the assay on COLO 205 colon, in the assay with RPMI-8226 leukemia, in the assay on SK-MEL-5 melanoma and in the assay on M14 melanoma was over 100 µM throughout. The TGI in the assay with BT-549 breast, in the assay on MCF7 breast, in the assay on NCI-H23 lung, in the assay with HCT-15 colon, in the assay on SN12C renal and in the assay on 786-0 renal was over 100 µM each time. The TGI in the assay with UACC-62 melanoma, in the assay on KM12 colon, with UO-31 renal, in the assay with HCT-116 colon, in the assay on SF-295 CNS and in the assay on T-47D breast was over 100 µM throughout.

For `O=C(c1ccccc1)N1CCC(Nc2nccs2)O1` (configuration not stated), the TGI in the assay with SNB-75 CNS, in the assay with EKVX NSCLC, in the assay on COLO 205 colon, with RPMI-8226 leukemia, with SK-MEL-5 melanoma and in the assay on M14 melanoma was over 10 µM each time. The TGI with BT-549 breast, in the assay with MCF7 breast, in the assay with NCI-H23 lung, with HCT-15 colon, in the assay on SN12C renal and with 786-0 renal was over 10 µM each time. The TGI in the assay on UO-31 renal, in the assay with HCT-116 colon, in the assay on SF-295 CNS and in the assay on T-47D breast was over 10 µM in each case.

As to `Cc1c/c(=N/NC(=O)c2ccncc2)n2nc(N)sc2n1`, the TGI in the assay on SNB-75 CNS, in the assay with EKVX NSCLC, with COLO 205 colon, in the assay on RPMI-8226 leukemia, in the assay on SK-MEL-5 melanoma and in the assay on M14 melanoma was over 100 µM each time. The TGI in the assay on BT-549 breast, in the assay with MCF7 breast, with NCI-H23 lung, in the assay with HCT-15 colon, in the assay on SN12C renal and in the assay with 786-0 renal was over 100 µM throughout. Moreover, the TGI in the assay on UACC-62 melanoma, in the assay with HOP-92 NSCLC, in the assay with KM12 colon, in the assay with UO-31 renal, in the assay with HCT-116 colon and in the assay with SF-295 CNS was over 100 µM throughout.

Consider `CC(NC(=O)OC(C)(C)C)C(=O)NC(Cc1ccccc1)C(=O)NCC(=O)Oc1c(Cl)c(Cl)c(Cl)c(Cl)c1Cl` (configuration not stated), for which the TGI with SNB-75 CNS was over 100 µM; in the assay on EKVX NSCLC, 48.7 µM; in the assay on COLO 205 colon, 70.9 µM; in the assay with RPMI-8226 leukemia, 54.9 µM; in the assay with SK-MEL-5 melanoma it was 27.4 µM; in the assay on M14 melanoma, 73.8 µM. The TGI in the assay with BT-549 breast is 69.3 µM; in the assay with MCF7 breast, 89.6 µM; with NCI-H23 lung it was 40.7 µM; with SN12C renal it was 30.4 µM; in the assay with 786-0 renal it was 46.4 µM; in the assay with UACC-62 melanoma it was 50.4 µM. Besides, the TGI is 38.3 µM in the assay on HOP-92 NSCLC, over 100 µM in the assay with KM12 colon, 33.9 µM in the assay on UO-31 renal and 43.9 µM in the assay with HCT-116 colon.

On to `COC(=O)/C=C(\C)CC/C=C(\C)CCC(O)C(C)(C)O` (configuration not stated), for which the TGI with SNB-75 CNS was over 100 µM; in the assay with EKVX NSCLC it was over 100 µM; in the assay with COLO 205 colon, 38.3 µM; in the assay on SK-MEL-5 melanoma it was 33.4 µM; with M14 melanoma, 81.3 µM; with BT-549 breast it was 84 µM. Further, the TGI in the assay on MCF7 breast was over 100 µM; in the assay on NCI-H23 lung it was 98.3 µM; in the assay with HCT-15 colon it was 48 µM; in the assay on SN12C renal it was 37.5 µM; in the assay on 786-0 renal, 42.5 µM; in the assay with UACC-62 melanoma it was 77.9 µM. The TGI in the assay on HOP-92 NSCLC was over 100 µM; in the assay with KM12 colon it was 28.4 µM; in the assay with UO-31 renal, over 100 µM; in the assay with HCT-116 colon it was 44.9 µM; in the assay on SF-295 CNS, 61.6 µM.

For the compound `COC(=O)c1ccc(/C=C2\Oc3cc(O)ccc3C2=O)cc1`, the TGI in the assay with SNB-75 CNS, with EKVX NSCLC, in the assay on COLO 205 colon, with RPMI-8226 leukemia, in the assay on SK-MEL-5 melanoma and with M14 melanoma was over 100 µM throughout. Further, the TGI with BT-549 breast, with MCF7 breast, with NCI-H23 lung, in the assay on HCT-15 colon, in the assay with SN12C renal and with 786-0 renal was over 100 µM each time. The TGI in the assay on UACC-62 melanoma, in the assay on KM12 colon, in the assay on UO-31 renal, in the assay with HCT-116 colon, with SF-295 CNS and in the assay with T-47D breast was over 100 µM in each case.

Regarding `CC(=O)O[C@H]1C(=O)[C@@]2(C)C(C(OC(=O)c3ccccc3)[C@]3(O)CC(OC(=O)C(O)C(NC(=O)c4ccccc4)c4cccc(Cl)c4)C(C)=C1C3(C)C)[C@]1(OC(C)=O)CO[C@@H]1C[C@@H]2O` (some centres not stated), the TGI is over 10 µM in the assay on SNB-75 CNS; over 10 µM with EKVX NSCLC; over 10 µM in the assay on COLO 205 colon; 9.49 µM in the assay on RPMI-8226 leukemia; over 10 µM with SK-MEL-5 melanoma; over 10 µM in the assay on M14 melanoma. The TGI in the assay on BT-549 breast, in the assay on MCF7 breast, in the assay on NCI-H23 lung, in the assay with HCT-15 colon, with SN12C renal and in the assay with 786-0 renal was over 10 µM throughout. The TGI with UACC-62 melanoma, with KM12 colon, in the assay on HCT-116 colon, in the assay with SF-295 CNS and with T-47D breast was over 10 µM each time.

Regarding `COC(=O)N/N=C(\c1ccccc1)c1ccc(OC)cc1`, the TGI with SNB-75 CNS, in the assay with EKVX NSCLC, in the assay on COLO 205 colon, in the assay with RPMI-8226 leukemia, in the assay with SK-MEL-5 melanoma and in the assay on M14 melanoma was over 100 µM each time. Moreover, the TGI in the assay on BT-549 breast, in the assay with MCF7 breast, with NCI-H23 lung, with HCT-15 colon, with SN12C renal and with 786-0 renal was over 100 µM each time. The TGI in the assay on UACC-62 melanoma, in the assay on KM12 colon, in the assay with UO-31 renal, in the assay with HCT-116 colon and in the assay on T-47D breast was over 100 µM throughout.
